Measurements published in patent US20220169680A1 (priority 2018, published 2022).
“Also recorded” adds a separate entry of the source.

Experiments:
[1] = tested on: LPS-induced acute lung injury in mice; conditions: mouse, in vivo; cited from earlier work
[2] = tested on: LPS-induced acute lung injury in mice; set-up: species or system C57 BL/6 male mice; conditions: mouse, in vivo
[3] = tested on: LPS-induced acute lung injury in mice; set-up: species or system C57 BL/6 male mice; conditions: mouse, in vivo; remark: listed apart in the source
[4] = tested on: 3′ UTR region of COLLAGEN3A1 gene; format: cell-based
HEK293T cells = format: cell-based
[5] = tested on: 3′ UTR region of RELA gene; format: cell-based
A549 cells [6] = format: cell-based
murine organs = tested on: murine organs; set-up: species or system C57 BL/6 male mice; conditions: mouse, in vivo
A549 cells [7] = format: cell-based; remark: listed apart in the source
A549 cells [8] = format: cell-based; remark: listed apart in the source
MRCS cells = format: cell-based
A549 cells [9] = format: cell-based; remark: listed apart in the source
HeLa cells = format: cell-based
[10] = tested on: 293T cell, HUVEC cell, HCT-116 cell, MKN-45 cell, MRCS cell, U397 cell and ESF-1 cell; format: cell-based
[11] = tested on: poly(I:C)-induced acute lung injury mouse model; set-up: species or system C57 BL/6 male mice; conditions: in vivo
A549 cells [12] = format: cell-based; remark: listed apart in the source
A549 cells [13] = format: cell-based; remark: listed apart in the source
A549 cells [14] = format: cell-based; remark: listed apart in the source
A549 cells [15] = format: cell-based; remark: listed apart in the source

## COc1cc(C2Oc3cc([C@H]4Oc5cc(O)cc(O)c5C(=O)[C@@H]4O)ccc3OC2CO)ccc1O (stereo partly shown) [silybin, reference compound]
[1]
  effect on LPS-induced acute lung injury in mice: can effectively reduce the LPS-induced acute lung injury in mice
[2]
  effect on preventing lung injury (IL-6 in alveolar lavage fluid): had a tendency to prevent lung injury at this dose

## DRLFFKCIYRRLKYGLKR [Jilin-2004(H5N1)-M2-44-61]
[3]
  entry of miR1246 antagomir into lung tissue of mice: could improve the entry of miR1246 antagomir into lung tissue of mice
[4]
  ability to carry HJT-sRNA-m7 compared with positive control TAT: stronger than that of the positive control TAT
  carrying HJT-sRNA-m7 into cells and fulfilling its function (luciferase reporter): could carry HJT-sRNA-m7 into cells and fulfill its function
  cell-penetrating peptide effect compared with transfection reagent RNAiMax: close to the transfection reagent RNAiMax
HEK293T cells
  carrying NS1-GFP plasmid into cells and GFP expression: could carry NS1-GFP plasmid into HEK293 cells, and GFP protein was expressed in the nucleus
[5]
  ability to carry PGY-dsRNA-6 compared with positive control TAT: stronger than that of the positive control TAT
  carrying PGY-dsRNA-6 into cells and fulfilling its function (luciferase reporter): could all carry PGY-dsRNA-6 into cells and fulfill its function
  cell-penetrating peptide effect compared with transfection reagent RNAiMax: close to the transfection reagent RNAiMax
A549 cells [6]
  carrying Cy3-labeled small RNA into cells (super high resolution microscope): can carry Cy3-labeled small RNA into A549 cells
  effect compared with RNAiMax or TAT (super high resolution microscope): stronger than that of the transfection reagent RNAiMax or of TAT
Murine organs
  ability to deliver small RNA compared with TAT: significantly stronger than that of TAT
  murine organs or tissues in which small RNA was detected: detected in 8 murine organs or tissues, including heart, liver, spleen, lung, kidney, stomach, small intestine and thymus
Murine organs; ip
  delivery of small RNAs to murine organs: could effectively deliver small RNAs (PGY-sRNA-23 and PGY-sRNA-26) to murine organs
A549 cells [7]
  ability to carry FAM-labeled small RNA compared with transfection reagent RNAiMax: stronger than that of the transfection reagent RNAiMax
  ability to carry small RNA compared with TAT at the same concentration: significantly stronger
  carrying FAM-labeled small RNA into cells: can all carry small RNA into cells
A549 cells [8]
  carrying Cy3-labeled small RNA into cells: can carry small RNA into cells
  effect compared with transfection reagent RNAiMax: stronger than that of the transfection reagent RNAiMax
[2]
  effect on preventing lung injury (IL-6 in alveolar lavage fluid): had no effect on preventing lung injury
MRCS cells
  cell penetration properties: consistent with the results obtained using A549 cells
A549 cells [9]
  ability to carry small RNA into cells compared with the transfection reagent RNAiMax group, qPCR: stronger than the transfection reagent RNAiMax group
  ability to carry small RNA into cells, qPCR: all had the ability to carry small RNA into cells
  rank of ability to carry small RNA in the cell experiments: the strongest ability to carry small RNA in the cell experiments
HeLa cells
  cell penetration properties: consistent with the results obtained using A549 cells
[10]
  entry effect compared with other fragments in different cell lines: even better entry effects
[11]
  ability to carry small RNA in murine organs compared with TAT: stronger than that of TAT
A549 cells [12]
  amount of cell entry versus incubation duration: increased as the incubation duration increased
  cell entry: entered A549 cells
  cell entry after 5 min incubation: cell entry could be detected; also recorded: the entry into the cell was observed
  cell entry at 30 min: had a strong entry effect
  cell entry at lower concentrations: could still enter A549 cells
  cell entry effect compared with TAT at the same time points: much stronger than that of the positive control TAT polypeptide
  cell entry effect compared with TAT positive control: stronger than that of the TAT polypeptide
  cell entry effect compared with existing cell-penetrating peptides (Table 4): significantly better cell entry effects than existing cell-penetrating peptides
  cell entry effect compared with the other three penetrating polypeptides: even better cell entry effect
  cell-penetrating peptide function compared with positive control TAT: stronger than that of the positive control TAT
  difference in entry effects between 1 h, 3 h and 6 h: little difference in entry effects
  entry effect compared with other C-terminally truncated polypeptides: even better entry effects than other polypeptides

## DRLFFKCIYRRLK [Jilin-2004(H5N1)-M2-44-56]
A549 cells [13]
  cell entry of polypeptide carrying GFP protein: observed
  effect of carrying GFP protein compared with positive control TAT: stronger than that of the positive control TAT
[5]
  ability to carry PGY-dsRNA-6 compared with positive control TAT: stronger than that of the positive control TAT
  carrying PGY-dsRNA-6 into cells and fulfilling its function (luciferase reporter): could all carry PGY-dsRNA-6 into cells and fulfill its function
A549 cells [7]
  ability to carry small RNA compared with TAT at the same concentration: significantly stronger
  carrying FAM-labeled small RNA into cells: can all carry small RNA into cells
A549 cells [14]
  ability to carry proteins into the cell compared with TAT at the same concentration: significantly stronger
  carrying β-galactosidase protein into the cell: could carry β-galactosidase protein into the cell
A549 cells [8]
  carrying Cy3-labeled small RNA into cells: can carry small RNA into cells
  effect compared with transfection reagent RNAiMax: stronger than that of the transfection reagent RNAiMax
A549 cells [12]
  cell-penetrating peptide function compared with positive control TAT: stronger than that of the positive control TAT

## GRKKRRQRRRPPQ [TAT, reference compound]
[3]
  entry of miR1246 antagomir into lung tissue of mice: almost no effect
HEK293T cells
  carrying NS1-GFP plasmid into cells and GFP expression: almost no expression of GFP fluorescent protein
A549 cells [9]
  ability to carry small RNA (PGY-sRNA-26) into cells, qPCR: very weak
A549 cells [15]
  cell entry of rhodamine-labeled polypeptide: could all enter A549 cells
A549 cells [12]
  cell entry: did not show cell entry
  cell entry after 5 min incubation: the entry into the cell was observed
  cell entry at 1 h: the effect was obvious
